In patent US20260176252A1, “IONIZABLE LIPIDS WITH BRANCHED HEAD GROUPS” (Beam Therapeutics Inc., priority 2023, published 2026):

Assays:
[1] = Dynamic light scattering (DLS) of LNP preparations: size (diameter) and polydispersity; type: physicochemical; details: for AVG PDI / AVG Z Dia (nm): Table A, LNP 47.5% Ionizable Lipid:40% cholesterol:2.5% PEG-2000 DMG:10% DPSC, N/P 4.5-6
Description: A ratio of aqueous to organic solvent of approximately 2:1 or 3:1 was maintained during mixing using differential flow rates. After mixing, LNP preparations were collected, diluted in phosphate buffer saline (PBS) or Tris-buffered saline (TBS) (approximately 1:1 v/v). Further buffer exchange was conducted using dialysis in PBS or TBS at 4° C. for 4 to 24 hours against a 20 kDa filter. After this initial dialysis, each individual LNP preparation may be characterized via dynamic light scattering (DLS) to measure the size (e.g., diameter) and polydispersity. LNP preparations falling within specific diameter and polydispersity ranges were pooled, and further dialyzed against PBS or TBS at 4° C. for 1 to 4 hours against a 100 kDa dialysis cassette. After the second dialysis, LNP preparations were sterile filtered using 0.22 μm filter and stored at 4° C. for further use.
(§1) LNP preparations are formed by microfluidic mixing of the lipid and NA solutions using a Precision Nanosystems NanoAssemblr Ignite Instrument, according to the manufacturer's protocol. A 3:1 ratio of aqueous to organic solvent is maintained during mixing using differential flow rates. After mixing, LNP preparations are collected, diluted in PBS (approximately 2:1 v/v), and further buffer exchange is conducted using dialysis in PBS at 4° C. for 8 to 24 hours against a 20 kDa filter. After this initial dialysis, each individual LNP preparation is characterized via dynamic light scattering (DLS) to measure size and polydispersity. pKa of a subpopulation of LNP preparations is measured via TNS assay. After dialysis, LNP preparations are sterile filtered using 0.22 micron sterile filter and stored at 4° C. for further use. In some embodiments, LNP preparations may be concentrated using 100 kDa Amicon filters per manufacturer's protocol.
DLS-LNP preparation hydrodynamic diameter and polydispersity index (PDI) is measured using high throughput dynamic light scattering (DLS) (DynaPro plate reader II, Wyatt). LNP preparations are diluted 1×PBS to an appropriate concentration and analyzed.

[2] = Encapsulation efficiency of LNP preparations (unlysed and lysed LNPs); type: physicochemical; details: for AVG EE(%): Table A, LNP 47.5% Ionizable Lipid:40% cholesterol:2.5% PEG-2000 DMG:10% DPSC, N/P 4.5-6, NA cargo with barcode
Description: Concentration of NA is determined by Qubit microRNA kit (for siRNA) or HS RNA kit (for mRNA) per manufacturer's instructions. Encapsulation efficiency is determined by measuring unlysed and lysed LNPs.

ALAS1 target site = assay: In vivo base editing with LNP-delivered ABE mRNA and sgRNA targeting ALAS1; details: Balb/c mice, IV tail vein, 4 days after dosing; for Liver Editing A->G (%): ALAS1, liver; for Quadracept Editing A->G (%): ALAS1, Quadracept (muscle)
Description: Exemplary LNP preparations are selected to determine each preparation's ability to perform base editing in a Balb/C mouse model as described herein.
Lipid nanoparticle components are dissolved in 100% ethanol at specified lipid component molar ratios. mRNA encoding an adenine base editor and a chemically-modified sgRNA is dissolved at a mass ratio of 1:1 in 10 mM citrate, 100 mM NaCl, pH 4.0, resulting in a concentration of NA cargo of approximately 0.22 mg/mL. LNP preparations are formulated with molar ratios of either 50% Ionizable Lipid:38.5% Cholesterol:1.5% PEG2000-DMG: 10% DSPC or 47.5% Ionizable Lipid:40% Cholesterol:2.5% PEG2000-DMG: 10% DSPC both at a total lipid to NA molar ratio of 6.
as §1
Male Balb/C mice aged approximately 8-12 weeks are used in the experiments described herein. Each mouse is temporarily restrained, and LNP preparations are administered IV via tail vein injection. Age-matched mice are also used to administer vehicle (1×PBS) via tail vein injection as a control. Four to six days post-dose, tissues including liver, spleen, heart and muscle are collected (only liver and muscle (quardracept) are reported). Genomic DNA is isolated and fragmented and adapter-ligated using the Nextera DNA Flex Library Prep Kit (Illumina) using the 96-well plate Nextera indexing primers (Illumina), according to the manufacturer's instructions. Library size and concentration is confirmed by Fragment Analyzer (Agilent) and sent to Novogene for whole genome sequencing using an Illumina HiSeq.
For base editing, mRNA encoding an adenine base editor (ABE) and a guide RNA (sgRNA) targeting ALAS1 at 1:1 (mass ratio) are coencapsulated in LNP preparations as described herein. LNP preparations are administrated into Balb/c mice through tail vein injections at concentrations ranging from 0.05 to 3.0 mg/kg total RNA. At 4 days after dosing, mice are euthanized and liver, spleen and bone barrow are harvested. Base editing is determined by performing targeted deep sequencing analysis at the ALAS1 target site using extracted genomic DNA.

[3] = pKa of LNP preparations via TNS assay; type: physicochemical; details: Table D; LNP formulation ratio 47.5:40:2.5:10
Description: as §1

[4] = Table C, LNP formulation ratio 47.5:40:2.5:10, ABE mRNA + ALAS1 sgRNA 1:1
[5] = Table D, LNP formulation ratio 47.5:40:2.5:10, ABE mRNA + PCSK9 sgRNA 1:1

Compound | Diameter (nm) [1, 4] [nm] | PDI (%) [1, 4] [%] | EE (%) [2, 4] [%] | Diameter (nm) [1, 5] [nm] | EE (%) [2, 5] [%] | pKa [3] | also measured
7,7′-bis(2-(pent-4-en-1-yl)hept-6-en-1-yl) O′1,O1-(2-(((4-(((2-(pyrrolidin-1-yl)ethyl)carbamoyl)oxy)decanoyl)oxy)methyl)propane-1,3-diyl) di(heptanedioate) [Example 4] | 124.45 | 10.6 | 87.2 | – | – | – | Liver Editing A->G (%) (ALAS1 target site; Dose 0.05 MPK total RNA): 1.59%
C=CCCCCCC(CCCCCC=C)OC(=O)CCCCCC(=O)OCC(COC(=O)CCCCCC(=O)OC(CCCCCC=C)CCCCCC=C)COC(=O)CCC(CCCCC)OC(=O)NCCN1CCCC1 (stereo not shown) [Example 2, 7,7′-di(pentadeca-1,14-dien-8-yl) O′1,O1-(2-(((4-(((2-(pyrrolidin-1-yl)ethyl)carbamoyl)oxy)nonanoyl)oxy)methyl)propane-1,3-diyl) di(heptanedioate)] | 64.4 | 8.2 | 95.75 | – | – | – | AVG PDI [1]: 0.09; AVG Z Dia (nm) [1]: 78.76 nm; AVG EE(%) [2]: 90.7%; Quadracept Editing A->G (%) (ALAS1 target site; Dose 1.5 MPK total RNA): 1.7%; Liver Editing A->G (%) (ALAS1 target site; Dose 1.5 MPK total RNA): 86.3%
C=CCCCCCC(CCCCCC=C)COC(=O)CCCCC(=O)OCC(COC(=O)CCCCC(=O)OCC(CCCCCC=C)CCCCCC=C)COC(=O)CCC(CCCCCC)OC(=O)NCCN1CCCC1 (stereo not shown) [Example 5, bis(2-(hept-6-en-1-yl)non-8-en-1-yl) O,O′-(2-(((4-(((2-(pyrrolidin-1-yl)ethyl)carbamoyl)oxy)decanoyl)oxy)methyl)propane-1,3-diyl) diadipate] | 64.5 | 8.2 | 95.84 | – | – | – | AVG PDI [1]: 0.08; AVG Z Dia (nm) [1]: 79.74 nm; AVG EE(%) [2]: 93.9%; Quadracept Editing A->G (%) (ALAS1 target site; Dose 1.5 MPK total RNA): 1.5%; Liver Editing A->G (%) (ALAS1 target site; Dose 1.5 MPK total RNA): 79.8%
CC/C=C\CCCC(CCC/C=C\CC)OC(=O)CCCCCC(=O)OCC(COC(=O)CCCCCC(=O)OC(CCC/C=C\CC)CCC/C=C\CC)COC(=O)CCC(CCCCCC)OC(=O)NCCN1CCCC1 (stereo not shown) [Example 6, 7,7′-di((3Z,12Z)-pentadeca-3,12-dien-8-yl) O′1,O1-(2-(((4-(((2-(pyrrolidin-1-yl)ethyl)carbamoyl)oxy)decanoyl)oxy)methyl)propane-1,3-diyl) di(heptanedioate)] | 71 | 10.8 | 95.5 | – | – | – | Quadracept Editing A->G (%) (ALAS1 target site; Dose 1.5 MPK total RNA): 2.5%; Liver Editing A->G (%) (ALAS1 target site; Dose 1.5 MPK total RNA): 88.7%
CCCCCCC(CCC(=O)OCC(COC(=O)CCCCCC(=O)OC/C=C(\C)CCC=C(C)C)COC(=O)CCCCCC(=O)OC/C=C(\C)CCC=C(C)C)OC(=O)NCCN1CCCC1 (stereo not shown) [Example 7, 1-(2E)-3,7-dimethylocta-2,6-dien-1-yl 7-{3-[(7-{[(2E)-3,7-dimethylocta-2,6-dien-1-yl]oxy}-7-oxoheptanoyl)oxy]-2-({[4-({[2-(pyrrolidin-1-yl)ethyl]carbamoyl}oxy)decanoyl]oxy}methyl)propyl}heptanedioate] | – | – | – | 134.3 | 91.7 | 7.17 | –
CCCCCCC(CCC(=O)OCC(COC(=O)CCCCCC(=O)OCCC(C)CCCC(C)C)COC(=O)CCCCCC(=O)OCCC(C)CCCC(C)C)OC(=O)NCCN1CCCC1 (stereo not shown) [Example 8, 1-(3,7-Dimethyloctyl)-7-[3-({7-[(3,7-dimethyloctyl)oxy]-7-oxoheptanoyl}oxy)-2-({[4-({[2-(pyrrolidin-1-yl)ethyl]carbamoyl}oxy)decanoyl]oxy}methyl)propyl]heptanedioate] | – | – | – | 110.35 | 94.3 | 6.74 | –
CCCCCCC(CCC(=O)OCC(COC(=O)CCCCCC(=O)OCCC(C)CCC=C(C)C)COC(=O)CCCCCC(=O)OCCC(C)CCC=C(C)C)OC(=O)NCCN1CCCC1 (stereo not shown) [Example 9, 1-(3,7-dimethyloct-6-en-1-yl) 7-[3-({7-[(3,7-dimethyloct-6-en-1-yl)oxy]-7-oxoheptanoyl}oxy)-2-({[4-({[2-(pyrrolidine-1-yl)ethyl]carbamoyl}oxy)decanoyl]oxy}methyl)propyl]heptanedioate] | – | – | – | 148.65 | 85.3 | 6.85 | –
C=CC(C)(CCC=C(C)C)OC(=O)CCCCCC(=O)OCC(COC(=O)CCCCCC(=O)OC(C)(C=C)CCC=C(C)C)COC(=O)CCC(CCCCCC)OC(=O)NCCN1CCCC1 (stereo not shown) [Example 10, 1-(3,7-dimethylocta-1,6-dien-3-yl)-7-[3-({7-[(3,7-dimethylocta-1,6-dien-3-yl)oxy]-7-oxoheptanoyl}oxy)-2-({[4-({[2-(pyrrolidin-1-yl)ethyl]carbamoyl}oxy)decanoyl]oxy}methyl)propyl]heptanedioate] | – | – | – | 135.28 | 99.1 | 6.814 | –
CCCCCCC(CCC(=O)OCC(COC(=O)CCCCCC(=O)OC/C=C(/C)CCC=C(C)C)COC(=O)CCCCCC(=O)OC/C=C(/C)CCC=C(C)C)OC(=O)NCCN1CCCC1 (stereo not shown) [Example 11, 1-(2Z)-3,7-dimethylocta-2,6-dien-1-yl-7-{3-[(7-{[(2Z)-3,7-dimethylocta-2,6-dien-1-yl]oxy}-7-oxoheptanoyl)oxy]-2-({[4-({[2-(pyrrolidin-1-yl)ethyl]carbamoyl}oxy)decanoyl]oxy}methyl)propyl}heptanedioate] | – | – | – | 152.05 | 90.5 | 6.85 | –
C=C(C)C(CC=C(C)C)COC(=O)CCCCCC(=O)OCC(COC(=O)CCCCCC(=O)OCC(CC=C(C)C)C(=C)C)COC(=O)CCC(CCCCCC)OC(=O)NCCN1CCCC1 (stereo not shown) [Example 12, 1-[5-methyl-2-(prop-1-en-2-yl)hex-4-en-1-yl]-7-(2-{[(7-{[5-methyl-2-(prop-1-en-2-yl)hex-4-en-1-yl]oxy}-7-oxoheptanoyl)oxy]methyl}-3-{[4-({[2-(pyrrolidin-1-yl)ethyl]carbamoyl}oxy)decanoyl]oxy}propyl) heptanedioate] | – | – | – | 163 | 87.7 | 6.68 | –
Bis(2-(pent-4-en-1-yl)hept-6-en-1-yl) O,O′-(2-(((4-(((2-(118yrrolidine-1-yl)ethyl)carbamoyl)oxy)decanoyl)oxy)methyl)propane-1,3-diyl) diadipate [Example 3] | 140.85 | 5.5 | 82.63 | – | – | – | –
